Source: patent publication US12162857B2, “Antiviral compounds” (priority 2022, dated 2024)

tested on: HMPV A2 TN/94-49; assay: HMPV antiviral assay: LLC-MK2 cells, ATP-Lite readout; type: cell-based; conditions: LLC-MK2, 168 h, MOI 0.005, 7 days incubation
Procedure: In vitro HMPV antiviral activity was evaluated using the clinical isolate A2 strain TN 94-49 and LLC-MK2 cells (ATCC #CCL-7), an immortalized kidney epithelial cell line from Macaca mulatta. Compounds were resuspended in dimethyl sulfoxide (DMSO) at 10 mM, serially diluted and added to a 384-well source plate. Subsequently, the compounds were diluted and transferred onto 384-well assay plates using the Echo-650 automated liquid handling system (Beckman Coulter, Indiana). The test compounds were assessed in duplicate at a top concentration of 2 μM followed by 2.5-fold serial dilutions to give a total of 10 concentration points. DMSO control wells were also included on the assay plates and were either infected or not, acting as positive and negative controls. A2 TN 94-49 virus infections were performed in-suspension with LLC-MK2 cells. The cells were washed twice with PBS and removed from the cell-culture flask with 0.25% trypsin-EDTA (Thermo Fisher Scientific, MA). The trypsin-EDTA was inactivated by resuspending in 2% fetal bovine serum (FBS) and OptiMEM (ThermoFisher Scientific, MA) containing 1% penicillin-streptomycin. Cells were pelleted by centrifuging for 5 minutes at 800 rpm, the supernatant was removed, and cells were re-suspended and washed in PBS plus 100 μg/mL CaCl2). This step was performed twice. Cells were then re-suspended in serum-free (SF)-OptiMEM containing 4 μg/mL TPCK-Trypsin (Sigma Aldrich, MO), 1% penicillin-streptomycin (ThermoFisher Scientific, MA) and 100 μg/mL CaCl2). Cells were counted and seeded at a density of 5,000 cells/well, 12.5 μL/well. Virus infections were done at a multiplicity of infection (MOI) of 0.005 with 12.5 μL added per well. Virus infections were performed in infection media which contained SF-OptiMEM, 100 μg/mL CaCl2) and 1% penicillin-streptomycin. HMPV viral stocks are suspended in infection media+5% glycerol, thus an equal volume of infection media+5% glycerol was added to uninfected wells to equalize the final % glycerol across all wells of the assay plate. The final concentration of TPCK-trypsin was 2 μg/mL. The assay plates were incubated at 37° C., 5% CO2 for 7 days. After 7 days incubation, 12.5 μL of ATP-Lite (PerkinElmer, MA) was added to each well and the raw luminescence values were determined using the Envision 2104 (Perkin Elmer, MA). The average of the raw luminescence values for the cells and virus only positive control wells was subtracted from all conditions tested and the percent cell health was determined by dividing these values by the average of the cells only negative control wells. EC50 values were then calculated by non-linear regression using a four-parameter curve logistic equation. The curve fit model employed was XLFit Dose Response One Site Model 200: y=(A+(B/(1+((x/C)^D)))), where A is the minimum y value, B is the maximum y value, C is the log EC50 value, and D is the slope factor. […] EC50 ranges are as follows: A<1 μM; B>1 μM.

| EC50 | SMILES |
| --- | --- |
| < 1 µM | COc1cc(C(=O)NC[C@@](O)(c2ccccc2)c2cc(C(C)(C)O)cc(-c3cccc(Cl)c3Cl)n2)cc2sc(C)nc12 [Example 147] |
| < 1 µM | COc1cc(C(=O)NC[C@@](O)(c2cccc(F)c2)c2cc(C(C)(C)O)c(F)c(-c3cccc(Cl)c3Cl)n2)cc2sc(C)nc12 [Example 102] |
| > 1 µM | COc1cc(C(=O)NC[C@@](O)(c2ccccc2)c2cc(C(C)(C)O)c(Cl)c(-c3cccc(Cl)c3Cl)n2)cc2cn(C(F)F)nc12 [Example 142] |
| > 1 µM | COc1cc(C(=O)NC[C@](O)(c2cc(C3(O)COC3)c(F)c(-c3ccc(F)cc3)n2)C2CC2)cc2cn(C3CC3)nc12 [Example 166] |
| > 1 µM | COc1cc(C(=O)NC[C@@](O)(c2ccccc2)c2cc(C(C)(C)O)c(F)c(-c3ccc(F)cc3F)n2)cc2cn(C3CC3)nc12 [Example 87] |
| < 1 µM | COc1cc(C(=O)NC[C@@](O)(c2ccccc2)c2nc(-c3cc(Cl)c(F)cc3F)c(F)c(C(C)(C)O)c2F)cc2cn(C(F)F)nc12 [Example 128] |
| < 1 µM | COc1cc(C(=O)NC[C@@](O)(c2cccc(F)c2)c2cc(C(C)(C)O)c(F)c(-c3ccc(F)c(Cl)c3Cl)n2)cc2cn(C3CC3)nc12 [Example 103] |
| > 1 µM | CC(C)(O)c1cc([C@@](O)(CNC(=O)c2cc(Cl)c3nn(C4CC4)cc3c2)c2ccccc2)nc(-c2cc(Cl)c(F)cc2F)c1Cl [Example 133] |
| > 1 µM | COc1cc(C(=O)NC[C@@](O)(c2ccccc2)c2cc(C(C)(C)O)c(Cl)c(-c3cc(Cl)c(F)cc3F)n2)cc2sc(C)nc12 [Example 131] |
| > 1 µM | COc1cc(C(=O)NC[C@](O)(c2cc(C(C)(C)F)c(F)c(-c3cc(Cl)c(F)cc3F)n2)C2CC2)cc2cn(C(F)F)nc12 [Example 179] |
| > 1 µM | COc1cc(C(=O)NC[C@@](O)(c2ccccc2)c2cc(C(C)(C)C(N)=O)c(F)c(-c3cc(Cl)c(F)cc3F)n2)cc2cn(C(F)F)nc12 [Example 161] |
| < 1 µM | CC(C)(O)c1cc([C@@](O)(CNC(=O)c2cc(OC3CC3)c3nn(C4CC4)cc3c2)C2CC2)nc(-c2ccc(F)c(Cl)c2F)c1F [Example 121] |
| > 1 µM | COc1cc(C(=O)NC[C@@](O)(c2ccccc2)c2cc(C(=O)NC3CC3)c(F)c(-c3cc(Cl)c(F)cc3F)n2)cc2cn(C3CC3)nc12 [Example 194] |
| < 1 µM | COc1cc(C(=O)NC[C@](O)(c2cc(C(C)(C)O)c(F)c(-c3cc(Cl)c(F)cc3F)n2)C2CC2)cc2cn(C(F)F)nc12 [Example 54] |
| > 1 µM | CCC(O)(CC)c1cc([C@@](O)(CNC(=O)c2cc(OC)c3nn(C(F)F)cc3c2)c2ccccc2)nc(-c2cc(Cl)c(F)cc2F)c1F [Example 117] |
| < 1 µM | CC(C)(O)c1cc([C@@](O)(CNC(=O)c2cc(OC3CC3)c3nn(C4CC4)cc3c2)c2ccccc2)nc(-c2cc(Cl)c(F)cc2F)c1F [Example 63] |
| < 1 µM | COc1cc(C(=O)NC[C@@](O)(c2cccc(F)c2)c2cc(C(C)(C)O)c(F)c(-c3ccc4c(c3Cl)OC(F)(F)O4)n2)cc2sc(C)nc12 [Example 108] |
| < 1 µM | COc1cc(C(=O)NC[C@@](O)(c2ccccc2)c2cc(C(C)(C)O)cc(-c3ccc(F)c(Cl)c3Cl)n2)cc2cn(C3CC3)nc12 [Example 152] |
| > 1 µM | COc1cc(C(=O)NC[C@@](O)(c2ccccc2)c2cc(C(C)(C)F)c(F)c(-c3cc(Cl)c(F)cc3F)n2)cc2cn(C3CC3)nc12 [Example 180] |
| < 1 µM | COc1cc(C(=O)NC[C@@](O)(c2ccccc2)c2cc(C(C)(C)O)cc(-c3ccc4c(c3Cl)OC(F)(F)O4)n2)cc2cn(C(F)F)nc12 [Example 158] |
| < 1 µM | COc1cc(C(=O)NC[C@](O)(c2cc(C(C)(C)O)c(F)c(-c3cc(Cl)c(F)cc3F)n2)c2cccs2)cc2cn(C3CC3)nc12 [Example 113] |
| < 1 µM | COc1cc(C(=O)NC[C@@](O)(c2cccc(F)c2)c2cc(C(C)(C)O)c(F)c(-c3cc(F)c(F)cc3F)n2)cc2cc(C3CC3)nn12 [Example 95] |
| < 1 µM | COc1cc(C(=O)NC[C@@](O)(c2ccccc2)c2cc(C(C)(C)O)cc(-c3ccc4c(c3Cl)OC(F)(F)O4)n2)cc2sc(C)nc12 [Example 157] |
| < 1 µM | COc1cc(C(=O)NC[C@@](O)(c2ccccc2)c2cc(C(C)(C)O)c(F)c(-c3ccc4c(c3Cl)OC(F)(F)O4)n2)cc2cn(C(F)F)nc12 [Example 76] |

| EC50 | SMILES |
| --- | --- |
| > 1 µM | COc1cc(C(=O)NC[C@@](O)(c2ccccc2)c2cc(N3C(=O)CCC3C(N)=O)cc(-c3cc(Cl)c(F)cc3F)n2)cc2cn(C3CC3)nc12 (some centres unmarked) [Example 197] |
| < 1 µM | COc1cc(C(=O)NC[C@@](O)(c2cccc(F)c2)c2cc(C(C)(C)O)c(F)c(-c3cc(Cl)c(F)cc3F)n2)cc2sc(C)nc12 [Example 89] |
| < 1 µM | CC(C)(O)c1cc([C@@](O)(CNC(=O)c2cc(Cl)c3nn(C4CC4)cc3c2)c2cccc(F)c2)nc(-c2cc(Cl)c(F)cc2F)c1F [Example 91] |
| > 1 µM | CC(C)(O)c1cc([C@@](O)(CNC(=O)c2cc(Cl)c3nn(C4CC4)cc3c2)c2ccccc2)nc(-c2ccc3c(c2Cl)OC(F)(F)O3)c1Cl [Example 137] |
| > 1 µM | COc1cc(C(=O)NC[C@](O)(c2ccc(F)c(-c3cc(Cl)c(F)cc3F)n2)C2CC2)cc2cn(C3(F)CC3)nc12 [Example 173] |
| < 1 µM | COc1cc(C(=O)NC[C@@](O)(c2cccc(F)c2)c2cc(C(C)(C)O)c(F)c(-c3cc(F)c(F)cc3F)n2)cc2cn(C(F)F)nc12 [Example 94] |
| > 1 µM | COc1cc(C(=O)NC[C@](O)(c2ccc(F)c(-c3cc(Cl)c(F)cc3F)n2)C2CC2)cc2cc(C)cnc12 [Example 175] |
| < 1 µM | COc1cc(C(=O)NC[C@@](O)(c2ccccc2)c2cc(C(C)(C)O)c(F)c(-c3ccc(F)c(Cl)c3Cl)n2)cc2cn(C(F)F)nc12 [Example 70] |
| < 1 µM | CC(C)(O)c1cc(-c2cccc(Cl)c2Cl)nc([C@@](O)(CNC(=O)c2cc(Cl)c3nn(C4CC4)cc3c2)c2ccccc2)c1 [Example 149] |
| > 1 µM | COc1cc(C(=O)NC[C@](O)(c2ccc(F)c(-c3cc(Cl)c(F)cc3F)n2)C2CC2)cc2cn(C3CC3)nc12 [Example 171] |
| > 1 µM | COc1cc(C(=O)NC[C@](O)(c2ccc(F)c(-c3cc(F)c(F)cc3F)n2)C2CC2)cc2cn(C3CC3)nc12 [Example 172] |
| < 1 µM | CC(C)(O)c1cc([C@@](O)(CNC(=O)c2cc(OC3CC3)c3nn(C4CC4)cc3c2)c2ccccc2)nc(-c2ccc(F)c(Cl)c2F)c1F [Example 125] |
| > 1 µM | COc1cc(C(=O)NC[C@](O)(c2ccc(F)c(-c3cc(Cl)c(F)cc3F)n2)C2CC2)cc2cn(C(F)F)nc12 [Example 174] |
| < 1 µM | COc1cc(C(=O)NC[C@@](O)(c2ccccc2)c2cc(C(C)(C)O)c(F)c(-c3ccc4c(c3Cl)OC(F)(F)O4)n2)cc2sc(C)nc12 [Example 73] |
| > 1 µM | COc1cc(C(=O)NC[C@@](O)(c2ccccc2)c2cc(C(C)(C)C(N)=O)c(F)c(-c3cc(Cl)c(F)cc3F)n2)cc2sc(C)nc12 [Example 163] |
| < 1 µM | COc1cc(C(=O)NC[C@@](O)(c2ccccc2)c2cc(C(C)(C)O)c(F)c(-c3cccc(Cl)c3Cl)n2)cc2cn(C(F)F)nc12 [Example 80] |
| < 1 µM | COc1cc(C(=O)NC[C@@](O)(c2ccccc2)c2cc(C(C)(C)O)c(F)c(-c3ccc4c(c3Cl)OC(F)(F)O4)n2)cc2cc(C3CC3)nn12 [Example 72] |
| < 1 µM | COc1cc(C(=O)NC[C@](O)(c2cc(C(C)(C)O)c(F)c(-c3cc(Cl)c(F)cc3F)n2)c2cccs2)cc2cn(C(F)F)nc12 [Example 114] |
| < 1 µM | CC(C)(O)c1cc([C@@](O)(CNC(=O)c2cc(Cl)c3nn(C4CC4)cc3c2)c2ccccc2)nc(-c2cccc(Cl)c2Cl)c1F [Example 82] |
| < 1 µM | COc1cc(C(=O)NC[C@@](O)(c2ccccc2)c2cc(C(C)(C)O)cc(-c3ccc(F)c(Cl)c3Cl)n2)cc2sc(C)nc12 [Example 151] |
| > 1 µM | CC(C)(O)c1cc([C@@](O)(CNC(=O)c2cc(Cl)c3nn(C4CC4)cc3c2)c2cccc(F)c2)nc(-c2cccc(Cl)c2Cl)c1F [Example 100] |
| < 1 µM | COc1cc(C(=O)NC[C@@](O)(c2ccccc2)c2cc(C(C)(C)C(N)=O)c(F)c(-c3cc(Cl)c(F)cc3F)n2)cc2cn(C3CC3)nc12 [Example 160] |
| < 1 µM | COc1cc(C(=O)NC[C@](O)(c2cc(C(C)(C)O)c(F)c(-c3cc(Cl)c(F)cc3F)n2)C2CC2)cc2cn(C3(F)CC3)nc12 [Example 53] |
